From ChEMBL document CHEMBL3286360, “Tuning the antimicrobial pharmacophore to enable discovery of short lipopeptides with multiple modes of action” (Eur J Med Chem, 2014)
≈ marks a conversion by molar mass, not a printed value. Calls of active or inactive are those of the source. The rule behind the calls is not given here. Where a SMILES comes first, the peptide text is derived from it. The star is where a group is joined. Stearoyl = CCCCCCCCCCCCCCCCCC(=O)*; Myristoyl = CCCCCCCCCCCCCC(=O)*; Decanoyl = CCCCCCCCCC(=O)*

Experiments:
[1] = system: Candida albicans; test: Antimicrobial activity against Candida albicans ATCC 14053 after 17 to 20 hrs by serial dilution method; format: functional
[2] = system: Escherichia coli; test: Antimicrobial activity against Escherichia coli ATCC 25922 after 17 to 20 hrs by serial dilution method; format: functional
[3] = system: Staphylococcus aureus; test: Antimicrobial activity against Staphylococcus aureus ATCC 12600 after 17 to 20 hrs by serial dilution method; format: functional
[4] = system: Priestia megaterium; test: Binding affinity to Bacillus megaterium pHis1525 DNA at 25 to 50 ug/ml after 30 mins by agarose gel electrophoresis
[5] = Cytotoxicity in human erythrocytes assessed as hemolysis at 125 ug/ml after 1 hr relative to control; format: cell-based, Erythrocyte; conditions: read-out: Activity
[6] = Cytotoxicity in human erythrocytes assessed as hemolysis at 250 ug/ml after 1 hr relative to control; format: cell-based, Erythrocyte; conditions: read-out: Activity

Row | MIC [1] | MIC [2] | MIC [3] | Activity [4] | Structure (SMILES) | hemolysis at 1 h, 125 ug/ml [5] | hemolysis at 1 h, 250 ug/ml [6]
1 | 31.2 mg/L (≈ 39 µM) | 7.8 mg/L (≈ 9.75 µM) | 7.8 mg/L (≈ 9.75 µM) | Active | CCCCCCCCCC(=O)N[C@@H](CCCCN)C(=O)N[C@@H](Cc1c[nH]c2ccccc12)C(=O)N[C@@H](CCCCN)C(=O)N[C@@H](Cc1c[nH]c2ccccc12)C(N)=O (Decanoyl-KWKW-NH2) | – | –
2 | 15.6 mg/L (≈ 18.2 µM) | 7.8 mg/L (≈ 9.11 µM) | 3.9 mg/L (≈ 4.56 µM) | – | CCCCCCCCCCCCCC(=O)N[C@@H](CCCCN)C(=O)N[C@@H](Cc1c[nH]c2ccccc12)C(=O)N[C@@H](Cc1c[nH]c2ccccc12)C(=O)N[C@@H](CCCCN)C(N)=O (Myristoyl-KWWK-NH2) | 56% | –
3 | > 62.5 mg/L | 15.6 mg/L (≈ 16.6 µM) | 15.6 mg/L (≈ 16.6 µM) | – | CCCCCCCCCCCCCC(=O)N[C@@H](CCCNC(=N)N)C(=O)N[C@H](C(=O)N[C@@H](CCCCN)C(=O)N[C@@H](Cc1c[nH]c2ccccc12)C(=O)N[C@@H](CCCCN)C(N)=O)[C@@H](C)CC (Myristoyl-RIKWK-NH2) | – | 20%
4 | > 62.5 mg/L | 7.8 mg/L (≈ 9.11 µM) | 3.9 mg/L (≈ 4.56 µM) | – | CCCCCCCCCCCCCC(=O)N[C@@H](CCCCN)C(=O)N[C@@H](Cc1c[nH]c2ccccc12)C(=O)N[C@@H](CCCCN)C(=O)N[C@@H](Cc1c[nH]c2ccccc12)C(N)=O (Myristoyl-KWKW-NH2) | 17% | –
5 | 15.6 mg/L (≈ 18.2 µM) | 15.6 mg/L (≈ 18.2 µM) | 7.8 mg/L (≈ 9.11 µM) | – | CCCCCCCCCCCCCC(=O)N[C@@H](CCCCN)C(=O)N[C@@H](CCCCN)C(=O)N[C@@H](Cc1c[nH]c2ccccc12)C(=O)N[C@@H](Cc1c[nH]c2ccccc12)C(N)=O (Myristoyl-KKWW-NH2) | – | –
6 | > 62.5 mg/L | 31.2 mg/L (≈ 30 µM) | 15.6 mg/L (≈ 15 µM) | – | CCCCCCCCCC(=O)N[C@@H](CCCCN)C(=O)N[C@H](C(=O)N[C@@H](CCCCN)C(=O)N[C@@H](CCCNC(=N)N)C(=O)N[C@@H](Cc1c[nH]c2ccccc12)C(=O)N[C@@H](CCCNC(=N)N)C(N)=O)[C@@H](C)CC (Decanoyl-KIKRWR-NH2) | – | –
7 | > 62.5 mg/L | 7.8 mg/L (≈ 7.12 µM) | 3.9 mg/L (≈ 3.56 µM) | – | CCCCCCCCCCCCCC(=O)N[C@@H](CCCCN)C(=O)N[C@@H](CCCCN)C(=O)N[C@H](C(=O)N[C@@H](CCCNC(=N)N)C(=O)N[C@@H](Cc1c[nH]c2ccccc12)C(=O)N[C@@H](CCCNC(=N)N)C(N)=O)[C@@H](C)CC (Myristoyl-KKIRWR-NH2) | – | –
8 | > 62.5 mg/L | > 31.2 mg/L | 15.6 mg/L (≈ 12.9 µM) | – | CCCCCCCCCCCCCCCCCC(=O)N[C@@H](CCCCN)C(=O)N[C@@H](CCCNC(=N)N)C(=O)N[C@H](C(=O)N[C@@H](Cc1c[nH]c2ccccc12)C(=O)N[C@@H](Cc1c[nH]c2ccccc12)C(=O)N[C@@H](CCCNC(=N)N)C(N)=O)[C@@H](C)CC (Stearoyl-KRIWWR-NH2) | – | –
9 | > 62.5 mg/L | > 31.2 mg/L | > 31.2 mg/L | – | CCCCCCCCCCCCCCCCCC(=O)N[C@@H](CCCCN)C(=O)N[C@H](C(=O)N[C@@H](CCCCN)C(=O)N[C@@H](CCCNC(=N)N)C(=O)N[C@@H](Cc1c[nH]c2ccccc12)C(=O)N[C@@H](Cc1c[nH]c2ccccc12)C(=O)N[C@@H](CCCNC(=N)N)C(N)=O)[C@@H](C)CC (Stearoyl-KIKRWWR-NH2) | – | –
10 | > 62.5 mg/L | 7.8 mg/L (≈ 7.29 µM) | 3.9 mg/L (≈ 3.65 µM) | Active | CCCCCCCCCC(=O)N[C@@H](CCCNC(=N)N)C(=O)N[C@H](C(=O)N[C@@H](CCCCN)C(=O)N[C@@H](Cc1c[nH]c2ccccc12)C(=O)N[C@@H](Cc1c[nH]c2ccccc12)C(=O)N[C@@H](CCCCN)C(N)=O)[C@@H](C)CC (Decanoyl-RIKWWK-NH2) | – | –
11 | > 62.5 mg/L | 15.6 mg/L (≈ 17.1 µM) | 15.6 mg/L (≈ 17.1 µM) | – | CCCCCCCCCCCCCC(=O)N[C@@H](CCCNC(=N)N)C(=O)N[C@@H](Cc1c[nH]c2ccccc12)C(=O)N[C@@H](CCCNC(=N)N)C(=O)N[C@@H](Cc1c[nH]c2ccccc12)C(N)=O (Myristoyl-RWRW-NH2) | – | –
12 | 15.6 mg/L (≈ 18.2 µM) | 15.6 mg/L (≈ 18.2 µM) | 7.8 mg/L (≈ 9.11 µM) | – | CCCCCCCCCC(=O)N[C@@H](CCCNC(=N)N)C(=O)N[C@@H](Cc1c[nH]c2ccccc12)C(=O)N[C@@H](Cc1c[nH]c2ccccc12)C(=O)N[C@@H](CCCNC(=N)N)C(N)=O (Decanoyl-RWWR-NH2) | – | –
13 | > 62.5 mg/L | > 31.2 mg/L | > 31.2 mg/L | – | CCCCCCCCCCCCCCCCCC(=O)N[C@@H](CCCCN)C(=O)N[C@H](C(=O)N[C@@H](Cc1c[nH]c2ccccc12)C(=O)N[C@@H](Cc1c[nH]c2ccccc12)C(=O)N[C@@H](CCCCN)C(N)=O)[C@@H](C)CC (Stearoyl-KIWWK-NH2) | – | –
14 | > 62.5 mg/L | 15.6 mg/L (≈ 17.1 µM) | 7.8 mg/L (≈ 8.55 µM) | – | CCCCCCCCCCCCCC(=O)N[C@@H](CCCNC(=N)N)C(=O)N[C@@H](Cc1c[nH]c2ccccc12)C(=O)N[C@@H](Cc1c[nH]c2ccccc12)C(=O)N[C@@H](CCCNC(=N)N)C(N)=O (Myristoyl-RWWR-NH2) | – | –
15 | > 62.5 mg/L | 7.8 mg/L (≈ 11.6 µM) | 7.8 mg/L (≈ 11.6 µM) | – | CCCCCCCCCCCCCC(=O)N[C@@H](CCCCN)C(=O)N[C@@H](Cc1c[nH]c2ccccc12)C(=O)N[C@@H](CCCCN)C(N)=O (Myristoyl-Lys-Trp-Lys-NH2) | 11% | 19%
16 | 31.2 mg/L (≈ 39 µM) | 15.6 mg/L (≈ 19.5 µM) | 7.8 mg/L (≈ 9.75 µM) | – | CCCCCCCCCC(=O)N[C@@H](CCCCN)C(=O)N[C@@H](Cc1c[nH]c2ccccc12)C(=O)N[C@@H](Cc1c[nH]c2ccccc12)C(=O)N[C@@H](CCCCN)C(N)=O (Decanoyl-KWWK-NH2) | – | –
17 | > 62.5 mg/L | 15.6 mg/L (≈ 14.2 µM) | 3.9 mg/L (≈ 3.56 µM) | – | CCCCCCCCCCCCCC(=O)N[C@@H](CCCCN)C(=O)N[C@H](C(=O)N[C@@H](CCCCN)C(=O)N[C@@H](CCCNC(=N)N)C(=O)N[C@@H](Cc1c[nH]c2ccccc12)C(=O)N[C@@H](CCCNC(=N)N)C(N)=O)[C@@H](C)CC (Myristoyl-KIKRWR-NH2) | – | –
18 | 31.2 mg/L (≈ 32.2 µM) | 31.2 mg/L (≈ 32.2 µM) | 7.8 mg/L (≈ 8.05 µM) | – | CCCCCCCCCCCCCC(=O)N[C@@H](CCCCN)C(=O)N[C@H](C(=O)N[C@@H](Cc1c[nH]c2ccccc12)C(=O)N[C@@H](Cc1c[nH]c2ccccc12)C(=O)N[C@@H](CCCCN)C(N)=O)[C@@H](C)CC (Myristoyl-KIWWK-NH2) | – | –
19 | > 62.5 mg/L | 15.6 mg/L (≈ 13.5 µM) | 7.8 mg/L (≈ 6.76 µM) | – | CCCCCCCCCCCCCC(=O)N[C@@H](CCCCN)C(=O)N[C@@H](CCCNC(=N)N)C(=O)N[C@H](C(=O)N[C@@H](Cc1c[nH]c2ccccc12)C(=O)N[C@@H](Cc1c[nH]c2ccccc12)C(=O)N[C@@H](CCCNC(=N)N)C(N)=O)[C@@H](C)CC (Myristoyl-KRIWWR-NH2) | – | –
20 | > 62.5 mg/L | > 31.2 mg/L | > 31.2 mg/L | – | CCCCCCCCCCCCCCCCCC(=O)N[C@@H](CCCNC(=N)N)C(=O)N[C@@H](Cc1c[nH]c2ccccc12)C(=O)N[C@@H](CCCNC(=N)N)C(=O)N[C@@H](Cc1c[nH]c2ccccc12)C(N)=O (Stearoyl-RWRW-NH2) | – | –
21 | 31.2 mg/L (≈ 36.5 µM) | 31.2 mg/L (≈ 36.5 µM) | 31.2 mg/L (≈ 36.5 µM) | – | CCCCCCCCCCCCCCCCCC(=O)N[C@@H](CCCCN)C(=O)N[C@@H](CCCCN)C(=O)N[C@@H](Cc1c[nH]c2ccccc12)C(=O)N[C@@H](CCCCN)C(N)=O (Stearoyl-KKWK-NH2) | – | –
22 | > 62.5 mg/L | > 31.2 mg/L | 31.2 mg/L (≈ 26.4 µM) | – | CCCCCCCCCCCCCCCCCC(=O)N[C@@H](CCCNC(=N)N)C(=O)N[C@H](C(=O)N[C@@H](CCCCN)C(=O)N[C@@H](Cc1c[nH]c2ccccc12)C(=O)N[C@@H](Cc1c[nH]c2ccccc12)C(=O)N[C@@H](CCCCN)C(N)=O)[C@@H](C)CC (Stearoyl-RIKWWK-NH2) | – | –
23 | > 62.5 mg/L | > 31.2 mg/L | > 31.2 mg/L | – | CCCCCCCCCCCCCCCCCC(=O)N[C@@H](CCCNC(=N)N)C(=O)N[C@@H](Cc1c[nH]c2ccccc12)C(=O)N[C@@H](CCCNC(=N)N)C(N)=O (Stearoyl-Arg-Trp-Arg-NH2) | – | –
24 | > 62.5 mg/L | > 31.2 mg/L | 31.2 mg/L (≈ 50.8 µM) | – | CCCCCCCCCC(=O)N[C@@H](CCCCN)C(=O)N[C@@H](Cc1c[nH]c2ccccc12)C(=O)N[C@@H](CCCCN)C(N)=O (Decanoyl-Lys-Trp-Lys-NH2) | – | < 10%
25 | > 62.5 mg/L | > 31.2 mg/L | 31.2 mg/L (≈ 32.2 µM) | – | CCCCCCCCCCCCCCCCCC(=O)N[C@@H](CCCNC(=N)N)C(=O)N[C@@H](Cc1c[nH]c2ccccc12)C(=O)N[C@@H](Cc1c[nH]c2ccccc12)C(=O)N[C@@H](CCCNC(=N)N)C(N)=O (Stearoyl-RWWR-NH2) | – | –
26 | > 62.5 mg/L | 15.6 mg/L (≈ 23.3 µM) | 7.8 mg/L (≈ 11.6 µM) | – | CCCCCCCCCC(=O)N[C@@H](CCCNC(=N)N)C(=O)N[C@@H](Cc1c[nH]c2ccccc12)C(=O)N[C@@H](CCCNC(=N)N)C(N)=O (Decanoyl-Arg-Trp-Arg-NH2) | – | –
27 | > 62.5 mg/L | > 31.2 mg/L | 31.2 mg/L (≈ 42 µM) | – | CCCCCCCCCC(=O)N[C@@H](CCCCN)C(=O)N[C@@H](CCCCN)C(=O)N[C@@H](Cc1c[nH]c2ccccc12)C(=O)N[C@@H](CCCCN)C(N)=O (Decanoyl-KKWK-NH2) | – | –
28 | > 62.5 mg/L | 15.6 mg/L (≈ 18.2 µM) | 7.8 mg/L (≈ 9.11 µM) | – | CCCCCCCCCC(=O)N[C@@H](CCCNC(=N)N)C(=O)N[C@@H](Cc1c[nH]c2ccccc12)C(=O)N[C@@H](CCCNC(=N)N)C(=O)N[C@@H](Cc1c[nH]c2ccccc12)C(N)=O (Decanoyl-RWRW-NH2) | – | –
